The values below come from ChEMBL document CHEMBL1201862, “PubChem BioAssay data set” (2004).

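Method: 48-hour compound exposure of cells in 96-well plates, five concentrations, linear interpolation of endpoints. Abbreviation: GI50, concentration required for 50% inhibition of growth.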 The source made the active and inactive calls. Rule as the data show it: active = GI50 up to about 1.1 µM and inactive = higher. A value given as a limit tells only on which side of the number the result lay.

Some test systems named below: A498; A549; ACHN; COLO 205; HOP-92; K562; KM12; LOX IMVI; M14; MDA-MB-231; Malme-3M; OVCAR-3; RPMI-8226; SK-MEL-28; SN12C; SNB-75; T47D; TK-10; UO-31.
Holding throughout (test): growth of human tumour cells (NCI), 48 h

On to `COc1ccc(C(CC2(c3ccc(OC)cc3)SCCCS2)NC(C)=O)cc1` (centres undefined), for which the GI50 in the test on A498 was 90.6 µM (inactive); with A549, 55.8 µM (inactive); in the test on ACHN, 63 µM (inactive); in the test on COLO 205, 25.1 µM (inactive); in the test on HOP-92, 83.6 µM (inactive); in the test with K562, 35.4 µM (inactive). Besides, the GI50 was 45.4 µM (inactive) in the test on KM12; 85.5 µM (inactive) in the test on LOX IMVI; 94 µM (inactive) in the test with M14; > 100 µM (inactive) in the test on MDA-MB-231; 86.9 µM (inactive) in the test on Malme-3M; 45.6 µM (inactive) in the test with OVCAR-3. For the same compound, the GI50 with RPMI-8226 is 38.5 µM (inactive); in the test with SK-MEL-28 it was > 100 µM (inactive); in the test on SN12C, 29.6 µM (inactive); with SNB-75, 32.4 µM (inactive); with T47D, 24.2 µM (inactive); in the test on TK-10, 39.8 µM (inactive). Further, the GI50 with UO-31 is 96.4 µM (inactive).
Turning to `CCOP(=O)(OCC)C(C#N)Cc1ccco1` (centres undefined), the GI50 in the test with A498, in the test with A549, with ACHN, with COLO 205, in the test with HOP-92 and in the test with K562 was > 10 µM (inactive) in each case. Further, the GI50 in the test with KM12, in the test on LOX IMVI, in the test with M14, with MDA-MB-231, in the test on Malme-3M and with OVCAR-3 was > 10 µM (inactive) each time. The GI50 in the test on RPMI-8226 is > 10 µM (inactive); with SK-MEL-28 it was > 10 µM (inactive); with SN12C, > 10 µM (inactive); with SNB-75, 5.94 µM (inactive); in the test on T47D, > 10 µM (inactive); with TK-10, > 10 µM (inactive). Also, the GI50 in the test with UO-31 is > 10 µM (inactive).
Consider `Cc1ccc(NC(=O)c2cc(S(=O)(=O)Nc3nc4cccnc4[nH]3)c(SSc3cc(Cl)c(C(=O)Nc4ccc(C)cc4)cc3S(=O)(=O)Nc3nc4cccnc4[nH]3)cc2Cl)cc1`, for which the GI50 with A498, in the test on A549, with ACHN, in the test on COLO 205, with HOP-92 and with K562 was > 100 µM (inactive) throughout. Besides, the GI50 with KM12, with LOX IMVI, in the test with M14, in the test with MDA-MB-231, in the test with Malme-3M and with OVCAR-3 was > 100 µM (inactive) in each case. In addition, the GI50 in the test on RPMI-8226, with SK-MEL-28, in the test with SN12C, with SNB-75, in the test on T47D and in the test with TK-10 was > 100 µM (inactive) throughout. For the same compound, in the test on UO-31, the GI50 is > 100 µM (inactive).
On to `N#Cc1nc(COCCOCc2ccccc2)oc1N`, for which the GI50 in the test on A498, in the test with A549, in the test with ACHN, in the test on COLO 205, with HOP-92 and with K562 was > 100 µM (inactive) each time. Also, the GI50 with KM12, in the test on LOX IMVI, in the test with M14, in the test with MDA-MB-231, in the test on Malme-3M and in the test on OVCAR-3 was > 100 µM (inactive) each time. In addition, the GI50 in the test with RPMI-8226, in the test with SK-MEL-28, in the test with SN12C, in the test with SNB-75, with T47D and in the test with TK-10 was > 100 µM (inactive) each time. Moreover, the GI50 with UO-31 is > 100 µM (inactive).
Turning to `Cc1cccc(NC(=S)NNC(=O)c2cc(-c3ccccc3)nc3ccccc23)c1`, the GI50 with A498 is 20.2 µM (inactive); in the test with A549, 25.4 µM (inactive); with ACHN, 36.1 µM (inactive); with COLO 205 it was 19.5 µM (inactive); in the test on HOP-92, 26.2 µM (inactive); with K562, 41.5 µM (inactive). Besides, the GI50 was 31.8 µM (inactive) in the test with KM12; 35 µM (inactive) in the test on M14; 27.9 µM (inactive) with MDA-MB-231; 25 µM (inactive) with Malme-3M; 26.8 µM (inactive) with OVCAR-3; 30.1 µM (inactive) in the test on RPMI-8226. Also, the GI50 was 38.4 µM (inactive) in the test with SK-MEL-28; 40.1 µM (inactive) in the test on SN12C; 36.6 µM (inactive) in the test on SNB-75; 34.1 µM (inactive) in the test with T47D; 40.4 µM (inactive) in the test on TK-10; 23.1 µM (inactive) with UO-31.
As for `CCCCNC(=S)Nc1nc(C(=O)NNS(=O)(=O)c2ccccc2)cs1`, the GI50 with A498 is 45.2 µM (inactive); in the test on A549, 40.3 µM (inactive); in the test with ACHN, 28.7 µM (inactive); in the test on COLO 205 it was 17.9 µM (inactive); with HOP-92, 64.7 µM (inactive); with K562, 49.1 µM (inactive). For the same compound, the GI50 with KM12 was 39.7 µM (inactive); in the test on LOX IMVI, 19.4 µM (inactive); in the test on M14, 40.1 µM (inactive); in the test with MDA-MB-231, 29.4 µM (inactive); in the test on Malme-3M, 28.9 µM (inactive); in the test on OVCAR-3, 24.2 µM (inactive). Besides, the GI50 is 31.2 µM (inactive) in the test on RPMI-8226; 25.6 µM (inactive) with SN12C; 35.6 µM (inactive) in the test on SNB-75; 71.8 µM (inactive) in the test with T47D; 36 µM (inactive) with TK-10; 26.1 µM (inactive) in the test on UO-31.
Consider `O=C1CSC(c2ccccc2O)N1c1ccc(-c2ccc(-n3c(-c4ccccc4)nc4ccccc4c3=O)cc2)cc1` (centres undefined), for which the GI50 in the test on A498 was 70 µM (inactive); with A549, 21.3 µM (inactive); in the test with COLO 205, 21.6 µM (inactive); with HOP-92, 27.6 µM (inactive); in the test on K562 it was 24.9 µM (inactive); in the test on KM12 it was 13.9 µM (inactive). Moreover, the GI50 in the test with LOX IMVI was 25.7 µM (inactive); in the test with M14, 38.5 µM (inactive); with MDA-MB-231, 36.9 µM (inactive); with Malme-3M, 17.2 µM (inactive); in the test on OVCAR-3, 34.8 µM (inactive); in the test with RPMI-8226 it was 33.6 µM (inactive). In addition, the GI50 in the test with SK-MEL-28 is 37.9 µM (inactive); in the test on SN12C, 74 µM (inactive); with SNB-75, 24.9 µM (inactive); in the test on T47D, 23 µM (inactive); in the test on TK-10, 16.1 µM (inactive); in the test with UO-31, 20.7 µM (inactive).
Turning to `N#Cc1c(N)oc(-c2cccc([N+](=O)[O-])c2)c1C#N`, the GI50 in the test with A498 was 21 µM (inactive); in the test with A549, > 100 µM (inactive); in the test on ACHN, 19.1 µM (inactive); in the test on COLO 205 it was 20.9 µM (inactive); in the test on HOP-92 it was 17.4 µM (inactive); in the test on KM12 it was > 10 µM (inactive). The GI50 in the test with LOX IMVI is 31.6 µM (inactive); with M14, 46.9 µM (inactive); in the test on MDA-MB-231 it was 37.1 µM (inactive); with Malme-3M, 24.4 µM (inactive); in the test on RPMI-8226, 22 µM (inactive); in the test on SK-MEL-28, 19.5 µM (inactive). Further, the GI50 with SN12C is 38.6 µM (inactive); in the test with SNB-75, 21.9 µM (inactive); in the test on T47D, 50 µM (inactive); in the test with TK-10, 22.1 µM (inactive); in the test with UO-31, 16.7 µM (inactive).
For the compound `Cc1c(-c2ccccc2)c(C#N)c2nnn(-c3ccc([N+](=O)[O-])cc3)c(=O)n12`, the GI50 in the test with A498 was 19.9 µM (inactive); in the test on ACHN, 22.2 µM (inactive); in the test with COLO 205 it was 7.35 µM (inactive); in the test on HOP-92, 16.5 µM (inactive); in the test on K562, 20.5 µM (inactive); in the test on KM12, 12.7 µM (inactive). Moreover, the GI50 in the test on LOX IMVI was 17.5 µM (inactive); in the test with MDA-MB-231 it was 8.15 µM (inactive); with Malme-3M, 24.2 µM (inactive); in the test with OVCAR-3 it was 15.3 µM (inactive); in the test with RPMI-8226, 20.7 µM (inactive); in the test with SK-MEL-28, 32.6 µM (inactive). The GI50 was 22.4 µM (inactive) with SN12C, 14.5 µM (inactive) in the test with SNB-75, 21.9 µM (inactive) in the test on T47D and 28.1 µM (inactive) in the test on TK-10.
On to `C=C(C)C12OC1[C@@]1(C)C(=CC2=O)CCC(O)[C@@H]1C` (some centres undefined), for which the GI50 in the test with A498 was 5.19 µM (inactive); in the test with A549 it was 1.42 µM (inactive); in the test on ACHN it was 0.417 µM (active); in the test with COLO 205, 1.61 µM (inactive); in the test with HOP-92 it was 16.7 µM (inactive); with KM12 it was 2.44 µM (inactive). In addition, the GI50 was 2.67 µM (inactive) in the test on LOX IMVI; 3.72 µM (inactive) in the test with M14; 1.52 µM (inactive) in the test with MDA-MB-231; 3.38 µM (inactive) with Malme-3M; 3.68 µM (inactive) in the test with OVCAR-3; 2.43 µM (inactive) with RPMI-8226. Also, the GI50 with SK-MEL-28 is 3.89 µM (inactive); with SN12C it was 1.36 µM (inactive); in the test on SNB-75, 3.42 µM (inactive); in the test on T47D, 3.16 µM (inactive); with TK-10, 3.73 µM (inactive); in the test on UO-31, 1.49 µM (inactive).
In the case of `CN(/N=C/c1ccccn1)C1=NCCCCN1`, the GI50 in the test on A498, in the test with A549, with ACHN, in the test on COLO 205, in the test on HOP-92 and with K562 was > 100 µM (inactive) each time. Moreover, the GI50 with KM12, with LOX IMVI, with M14, in the test on MDA-MB-231, with Malme-3M and in the test on OVCAR-3 was > 100 µM (inactive) throughout. Also, the GI50 in the test with RPMI-8226, with SK-MEL-28, in the test with SNB-75, with T47D, in the test with TK-10 and with UO-31 was > 100 µM (inactive) throughout.
